Data: patent publication US11708562B2, “Differentiation of human embryonic stem cells” (Janssen Biotech, Inc., priority 2006, dated 2023)

Tested on: H9P83 cells on MATRIGEL and H9P44 cells on MEFs
Assay: Microarray analysis of gene expression after definitive endoderm formation (Table IV)
Type: cell-based, human
Details: after 5 days of treatment
Procedure: Controls for each group included cells plated on […]-coated dishes and cultured in MEF-conditioned medium or cells plated on MEFs and cultured in ES medium.
Sample preparation, hybridization, and image analysis were performed according to the Affymetrix Human Genome U133 Plus 2.0 Array. Following normalization and a log transformation, data analysis was performed using OmniViz® software (MA) and […] (VizXLabs, WA). The variability within each treatment and among the different treatments was compared using the Pearson correlation coefficient. […] Significant differences in gene expression between the samples were evaluated using analysis of variance and an F-test with adjusted P-value (Benjamini and Hochberg correction) of ≤0.05. Only genes with a present call were included in the analysis.

[1] = H9P44 on MEFs-DE stage, undifferentiated H9P44 on MEFs 2.17
[2] = H9P44 on MEFs-DE stage, undifferentiated H9P44 on MEFs 2.18
[3] = H9P44 on MEFs-DE stage, undifferentiated H9P44 on MEFs 3.80
[4] = H9P83 on Matrigel-DE stage, undifferentiated H9P83 on Matrigel 1.38

Activin A: a member of the TGFβ superfamily; growth factor (R&D Systems) used to differentiate human embryonic stem cells
expression of HCN1 (BM682352, cDNA FLJ37204 fis, clone BRALZ2006976) (H9P44 on MEFs-DE stage): −3.88 | expression of INDO (M34455, indoleamine 2,3-dioxygenase (IDO)) (H9P44 on MEFs-DE stage): 1.69 | expression of JAKMIP2 (BU729850, hypothetical protein LOC153469) (H9P44 on MEFs-DE stage): −1.56 | expression of LOC157627 (AL832535, cDNA DKFZp547J1816) (H9P44 on MEFs-DE stage): −1.50 | expression of PCSK1 (NM_000439, proprotein convertase subtilisinkexin type 1) (H9P44 on MEFs-DE stage): −3.19 | expression of SMOC2 (AB014737, mRNA for SMAP-2b) (H9P44 on MEFs-DE stage): −2.27 | SCNN1G (AI985987) gene expression (H9P44 on MEFs-DE stage, undifferentiated H9P44 on MEFs 0.12): −2.70 | TMEM16A (NM_018043) gene expression (H9P44 on MEFs-DE stage, undifferentiated H9P44 on MEFs 0.25): −3.93 | LOC646326 (BE972639) gene expression (H9P44 on MEFs-DE stage, undifferentiated H9P44 on MEFs 0.33): −2.24 | COL14A1 (AI693516) gene expression (H9P44 on MEFs-DE stage, undifferentiated H9P44 on MEFs 0.96): −1.81 | AK5 (BG169832) gene expression (H9P44 on MEFs-DE stage, undifferentiated H9P44 on MEFs 1.03): −1.94 | C9orf39 (AA280904) gene expression (H9P44 on MEFs-DE stage, undifferentiated H9P44 on MEFs 1.13): −0.78 | LOC200230 (AI056877) gene expression (H9P44 on MEFs-DE stage, undifferentiated H9P44 on MEFs 1.15): −1.35 | CTNND2 (U96136) gene expression (H9P44 on MEFs-DE stage, undifferentiated H9P44 on MEFs 1.18): −1.17 | SDK2 (N23651) gene expression (H9P44 on MEFs-DE stage, undifferentiated H9P44 on MEFs 1.27): −2.07 | SAMHD1 (AF147427) gene expression (H9P44 on MEFs-DE stage, undifferentiated H9P44 on MEFs 1.35): −2.30 | PAH (NM_000277) gene expression (H9P44 on MEFs-DE stage, undifferentiated H9P44 on MEFs 1.46): −0.42 | AL120674 (ESTs) gene expression (H9P44 on MEFs-DE stage, undifferentiated H9P44 on MEFs 1.55): −2.20 | AI742043 (ESTs) gene expression (H9P44 on MEFs-DE stage, undifferentiated H9P44 on MEFs 1.77): −1.45 | DAZL (NM_001351) gene expression (H9P44 on MEFs-DE stage, undifferentiated H9P44 on MEFs 1.93): −0.73 | PSMB9 (NM_002800) gene expression (H9P44 on MEFs-DE stage, undifferentiated H9P44 on MEFs 2.05): −1.43 | BF698797 (ESTs) gene expression (H9P44 on MEFs-DE stage, undifferentiated H9P44 on MEFs 2.07): −0.40 | AF107846 (neuroendocrine-specific Golgi protein p55 (XLalphas) gene) expression (H9P44 on MEFs-DE stage, undifferentiated H9P44 on MEFs 2.12): −2.56 | CHST8 (NM_022467) gene expression [1]: 0.48 | NPTX1 (NM_002522) gene expression [1]: −1.19 | FGF19 (AF110400) gene expression [2]: −0.91 | PCDH8 (NM_002590) gene expression [2]: 0.12 | LOC157627 (AF052108) gene expression (H9P44 on MEFs-DE stage, undifferentiated H9P44 on MEFs 2.26): −1.33 | C10orf96 (BC044830) gene expression (H9P44 on MEFs-DE stage, undifferentiated H9P44 on MEFs 2.28): −1.39 | CR2 (NM_001877) gene expression (H9P44 on MEFs-DE stage, undifferentiated H9P44 on MEFs 2.35): −1.44 | SAMHD1 (NM_015474) gene expression (H9P44 on MEFs-DE stage, undifferentiated H9P44 on MEFs 2.89): 0.29 | PSMB8 (U17496) gene expression (H9P44 on MEFs-DE stage, undifferentiated H9P44 on MEFs 3.30): 0.09 | HHIP (AK098525) gene expression (H9P44 on MEFs-DE stage, undifferentiated H9P44 on MEFs 3.32): −0.11 | KCNG3 (NM_133329) gene expression (H9P44 on MEFs-DE stage, undifferentiated H9P44 on MEFs 3.67): 0.26 | STXBP6 (N21096) gene expression (H9P44 on MEFs-DE stage, undifferentiated H9P44 on MEFs 3.69): 1.14 | NMI (NM_004688) gene expression [3]: 1.13 | RMST (BE468066) gene expression [3]: 1.63 | TOX (AI961231) gene expression (H9P44 on MEFs-DE stage, undifferentiated H9P44 on MEFs 4.00): 1.13 | C20orf118 (BF437747) gene expression (H9P44 on MEFs-DE stage, undifferentiated H9P44 on MEFs 4.57): 1.75 | C20orf118 (AV715309) gene expression (H9P44 on MEFs-DE stage, undifferentiated H9P44 on MEFs 4.76): 1.48 | FEZ1 (NM_005103) gene expression (H9P44 on MEFs-DE stage, undifferentiated H9P44 on MEFs 4.98): 2.20 | SCG5 (NM_003020) gene expression (H9P44 on MEFs-DE stage, undifferentiated H9P44 on MEFs 5.01): 3.11 | LECT1 (NM_007015) gene expression (H9P44 on MEFs-DE stage, undifferentiated H9P44 on MEFs 5.36): 1.83 | IFIH1 (NM_022168) gene expression (H9P44 on MEFs-DE stage, undifferentiated H9P44 on MEFs −0.10): −2.15 | ATP5S (BE968806) gene expression (H9P44 on MEFs-DE stage, undifferentiated H9P44 on MEFs −0.34): −4.73 | PAK7 (AB040812) gene expression (H9P44 on MEFs-DE stage, undifferentiated H9P44 on MEFs −0.49): −4.18 | expression of HCN1 (BM682352, cDNA FLJ37204 fis, clone BRALZ2006976) (H9P83 on Matrigel-DE stage): −4.38 | expression of INDO (M34455, indoleamine 2,3-dioxygenase (IDO)) (H9P83 on Matrigel-DE stage): 1.58 | expression of JAKMIP2 (BU729850, hypothetical protein LOC153469) (H9P83 on Matrigel-DE stage): 0.43 | expression of LOC157627 (AL832535, cDNA DKFZp547J1816) (H9P83 on Matrigel-DE stage): −0.04 | expression of PCSK1 (NM_000439, proprotein convertase subtilisinkexin type 1) (H9P83 on Matrigel-DE stage): −2.68 | expression of SMOC2 (AB014737, mRNA for SMAP-2b) (H9P83 on Matrigel-DE stage): −2.04 | LOC646326 (BE972639) gene expression (H9P83 on Matrigel-DE stage, undifferentiated H9P83 on Matrigel 0.00): −2.71 | LOC200230 (AI056877) gene expression (H9P83 on Matrigel-DE stage, undifferentiated H9P83 on Matrigel 0.11): −2.37 | C9orf39 (AA280904) gene expression (H9P83 on Matrigel-DE stage, undifferentiated H9P83 on Matrigel 0.23): −1.58 | COL14A1 (AI693516) gene expression (H9P83 on Matrigel-DE stage, undifferentiated H9P83 on Matrigel 0.39): −1.63 | AF107846 (neuroendocrine-specific Golgi protein p55 (XLalphas) gene) expression (H9P83 on Matrigel-DE stage, undifferentiated H9P83 on Matrigel 0.44): −0.25 | AK5 (BG169832) gene expression (H9P83 on Matrigel-DE stage, undifferentiated H9P83 on Matrigel 0.62): −2.79 | PAH (NM_000277) gene expression (H9P83 on Matrigel-DE stage, undifferentiated H9P83 on Matrigel 0.65): −1.08 | CTNND2 (U96136) gene expression (H9P83 on Matrigel-DE stage, undifferentiated H9P83 on Matrigel 0.78): −1.33 | BF698797 (ESTs) gene expression (H9P83 on Matrigel-DE stage, undifferentiated H9P83 on Matrigel 0.93): −0.74 | AI742043 (ESTs) gene expression (H9P83 on Matrigel-DE stage, undifferentiated H9P83 on Matrigel 0.94): −0.76 | AL120674 (ESTs) gene expression (H9P83 on Matrigel-DE stage, undifferentiated H9P83 on Matrigel 1.00): −1.35 | SAMHD1 (AF147427) gene expression (H9P83 on Matrigel-DE stage, undifferentiated H9P83 on Matrigel 1.33): −0.99 | C10orf96 (BC044830) gene expression [4]: −0.32 | PSMB9 (NM_002800) gene expression [4]: 0.27 | LOC157627 (AF052108) gene expression (H9P83 on Matrigel-DE stage, undifferentiated H9P83 on Matrigel 1.49): 0.22 | CR2 (NM_001877) gene expression (H9P83 on Matrigel-DE stage, undifferentiated H9P83 on Matrigel 1.50): −0.43 | DAZL (NM_001351) gene expression (H9P83 on Matrigel-DE stage, undifferentiated H9P83 on Matrigel 1.69): −0.81 | HHIP (AK098525) gene expression (H9P83 on Matrigel-DE stage, undifferentiated H9P83 on Matrigel 1.76): −0.57 | CHST8 (NM_022467) gene expression (H9P83 on Matrigel-DE stage, undifferentiated H9P83 on Matrigel 2.11): −0.51 | FGF19 (AF110400) gene expression (H9P83 on Matrigel-DE stage, undifferentiated H9P83 on Matrigel 2.12): −0.08 | KCNG3 (NM_133329) gene expression (H9P83 on Matrigel-DE stage, undifferentiated H9P83 on Matrigel 2.18): 0.74 | NPTX1 (NM_002522) gene expression (H9P83 on Matrigel-DE stage, undifferentiated H9P83 on Matrigel 2.35): −0.48 | STXBP6 (N21096) gene expression (H9P83 on Matrigel-DE stage, undifferentiated H9P83 on Matrigel 2.42): 0.99 | SAMHD1 (NM_015474) gene expression (H9P83 on Matrigel-DE stage, undifferentiated H9P83 on Matrigel 2.63): 0.57 | FEZ1 (NM_005103) gene expression (H9P83 on Matrigel-DE stage, undifferentiated H9P83 on Matrigel 2.80): 2.08 | RMST (BE468066) gene expression (H9P83 on Matrigel-DE stage, undifferentiated H9P83 on Matrigel 3.26): 1.49 | TOX (AI961231) gene expression (H9P83 on Matrigel-DE stage, undifferentiated H9P83 on Matrigel 3.28): 1.23 | PSMB8 (U17496) gene expression (H9P83 on Matrigel-DE stage, undifferentiated H9P83 on Matrigel 3.43): 0.46 | NMI (NM_004688) gene expression (H9P83 on Matrigel-DE stage, undifferentiated H9P83 on Matrigel 3.54): 0.96
